Results taken from patent publication US7563805B2, “Tri-, tetra-substituted-3-aminopyrrolidine derivative” (Daiichi Pharmaceutical Co., Ltd., priority 2005, dated 2009).
≈ marks a conversion by molar mass, not a printed value.

How the values were obtained:
hERG K+ channel = hERG K+ channel (Homo sapiens, UniProt Q12809); test: hERG-K^+ channel blocking effect
E. coli NIHJ = test: antibacterial activity (MIC), standard method of Japanese Society of Chemotherapy; details: Escherichia coli
P. vulgaris, 08601 = test: as above; details: Proteus vulgaris, 08601, P. vulgaris
S. marscecens, 10100 = test: as above
P. aeruginosa, 32121 = test: as above; details: Pseudomonas aeruginosa
S. aureus, 209P = test: as above; details: Staphylococcus aureus
S. epidermidis, 56500 = test: as above; details: Staphylococcus epidermidis, 56500, S. epidermidis
E. faecalis, ATCC 19433 = test: as above; details: Enterococcus faecalis, ATCC19433, E. faecalis
[1] = system: S. aureus, 87037 (LVFX-resistant MRSA); test: as above; details: Staphylococcus aureus, MRSA, S. aureus, 87037 (LVFX-resistant MRSA)
[2] = system: S. pneumoniae, J24 (penicillin-intermediate resistant bacteria); test: as above; details: Streptococcus pneumoniae
P. aeruginosa, 32104 = test: as above; details: Pseudomonas aeruginosa
[3] = system: Mycobacterium tuberculosis (sensitive bacteria); test: anti-Mycobacterium tuberculosis (sensitive bacteria) activity, MIC; assay type: cell-based
[4] = system: Mycobacterium tuberculosis (quinolone sensitive); test: anti-Mycobacterium tuberculosis (quinolone sensitive) activity, MIC; assay type: cell-based

Chain of hERG K+ channel (Q12809 whole entry): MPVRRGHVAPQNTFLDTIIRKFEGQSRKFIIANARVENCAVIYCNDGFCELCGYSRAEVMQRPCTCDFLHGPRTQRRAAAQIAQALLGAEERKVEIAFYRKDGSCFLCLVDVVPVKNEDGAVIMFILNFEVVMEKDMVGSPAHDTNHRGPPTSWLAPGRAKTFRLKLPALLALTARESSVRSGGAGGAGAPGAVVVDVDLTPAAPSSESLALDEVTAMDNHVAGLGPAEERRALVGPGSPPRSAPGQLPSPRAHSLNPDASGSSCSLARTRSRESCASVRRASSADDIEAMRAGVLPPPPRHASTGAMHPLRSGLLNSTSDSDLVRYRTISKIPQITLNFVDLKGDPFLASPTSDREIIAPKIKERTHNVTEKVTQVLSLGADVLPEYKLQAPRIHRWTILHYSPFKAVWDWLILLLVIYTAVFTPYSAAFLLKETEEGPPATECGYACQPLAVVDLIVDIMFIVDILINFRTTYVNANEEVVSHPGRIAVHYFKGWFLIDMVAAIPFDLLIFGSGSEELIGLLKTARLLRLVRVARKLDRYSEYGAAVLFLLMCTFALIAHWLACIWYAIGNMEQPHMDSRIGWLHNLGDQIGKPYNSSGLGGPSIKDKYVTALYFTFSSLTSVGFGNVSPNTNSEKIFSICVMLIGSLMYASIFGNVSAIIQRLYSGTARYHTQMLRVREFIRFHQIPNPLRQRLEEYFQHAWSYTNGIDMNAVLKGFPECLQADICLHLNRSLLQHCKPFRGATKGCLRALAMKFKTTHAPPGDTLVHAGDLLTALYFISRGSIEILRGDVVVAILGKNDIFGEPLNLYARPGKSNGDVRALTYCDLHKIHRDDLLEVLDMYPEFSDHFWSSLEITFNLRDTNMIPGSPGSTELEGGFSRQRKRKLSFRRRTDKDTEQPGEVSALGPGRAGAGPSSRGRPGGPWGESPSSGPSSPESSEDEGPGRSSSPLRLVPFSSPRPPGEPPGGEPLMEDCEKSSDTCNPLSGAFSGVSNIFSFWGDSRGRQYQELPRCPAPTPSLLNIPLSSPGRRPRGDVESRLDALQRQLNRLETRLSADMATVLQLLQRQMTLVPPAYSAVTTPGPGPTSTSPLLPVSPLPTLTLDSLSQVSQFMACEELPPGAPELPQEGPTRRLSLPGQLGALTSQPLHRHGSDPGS

COc1c(N2CC(F)[C@](C)(N)C2)c(F)cc2c(=O)c(C(=O)O)cn([C@@H]3C[C@@H]3F)c12 (single isomer, unassigned) [Example 25]
melting point: 160 to 163 °C
inhibition at 30 µM (hERG K+ channel): 2 ± 7.2%
inhibition at 100 µM (hERG K+ channel): 4.2 ± 7.9%
inhibition at 300 µM (hERG K+ channel): 17.1 ± 14.4%

Cc1c(N2CC(C)[C@@](N)(CF)C2)c(F)cc2c(=O)c(C(=O)O)cn([C@@H]3C[C@@H]3F)c12 (stereo partly drawn) [Example 31, 7-[(3S)-3-Amino-3-fluoromethyl-4-methylpyrrolidin-1-yl]-6-fluoro-1-[(1R,2S)-2-fluoro-1-cyclopropyl]-8-methyl-1,4-dihydro-4-oxoquinoline-3-carboxylic acid]
melting point: 200 to 203 °C
MIC (E. coli NIHJ): 0.006 µg/mL (≈ 0.0147 µM)
MIC (P. vulgaris, 08601): 0.012 µg/mL (≈ 0.0293 µM)
MIC (S. marscecens, 10100): 0.1 µg/mL (≈ 0.244 µM)
MIC (P. aeruginosa, 32121): 0.05 µg/mL (≈ 0.122 µM)
MIC (S. aureus, 209P): 0.012 µg/mL (≈ 0.0293 µM)
MIC (S. epidermidis, 56500): 0.025 µg/mL (≈ 0.0611 µM)
MIC (E. faecalis, ATCC 19433): 0.1 µg/mL (≈ 0.244 µM)
MIC [1]: 0.1 µg/mL (≈ 0.244 µM)
MIC [2]: 0.05 µg/mL (≈ 0.122 µM)

COc1c(N2C[C@H](CF)[C@](C)(N)C2)c(F)cc2c(=O)c(C(=O)O)cn([C@@H]3C[C@@H]3F)c12 [Example 20, 7-[(3S,4S)-3-Amino-4-fluoromethyl-3-methylpyrrolidin-1-yl]-6-fluoro-1-[(1R,2S)-2-fluoro-1-cyclopropyl]-8-methoxy-1,4-dihydro-4-oxoquinoline-3-carboxylic acid]
melting point: 187 to 189 °C
inhibition at 30 µM (hERG K+ channel): 1.4 ± 4.5%
inhibition at 100 µM (hERG K+ channel): 8.5 ± 6.1%
inhibition at 300 µM (hERG K+ channel): 14.5 ± 6%

COc1c(N2CC(F)[C@](C)(N)C2)c(F)cc2c(=O)c(C(=O)O)cn([C@@H]3C[C@@H]3F)c12 (single isomer, unassigned) [Example 26]
melting point: 206 to 208 °C

COc1c(N2CC(OC)C(C)(N)C2)c(F)cc2c(=O)c(C(=O)O)cn([C@@H]3C[C@@H]3F)c12 (stereo partly drawn) [Example 19, 7-(3-Amino-4-methoxy-3-methylpyrrolidine-1-yl)-6-fluoro-1-[(1R,2S)-2-fluorocyclopropyl]-8-methoxy-1,4-dihydro-4-oxoquinoline-3-carboxylic acid]
melting point: 162 to 163 °C

COc1c(N2CC(C)[C@@](N)(CF)C2)c(F)cc2c(=O)c(C(=O)O)cn([C@@H]3C[C@@H]3F)c12 (stereo partly drawn) [Example 28, 7-[(3S)-3-Amino-3-fluoromethyl-4-methylpyrrolidin-1-yl]-6-fluoro-1-[(1R,2S)-2-fluoro-1-cyclopropyl]-8-methoxy-1,4-dihydro-4-oxoquinoline-3-carboxylic acid]
melting point: 167 to 169 °C
MIC (E. coli NIHJ): 0.025 µg/mL (≈ 0.0588 µM)
MIC (P. vulgaris, 08601): 0.05 µg/mL (≈ 0.118 µM)
MIC (S. marscecens, 10100): 0.39 µg/mL (≈ 0.917 µM)
MIC (P. aeruginosa, 32121): 0.39 µg/mL (≈ 0.917 µM)
MIC (S. aureus, 209P): 0.025 µg/mL (≈ 0.0588 µM)
MIC (S. epidermidis, 56500): 0.05 µg/mL (≈ 0.118 µM)
MIC (E. faecalis, ATCC 19433): 0.2 µg/mL (≈ 0.47 µM)
MIC [1]: 0.2 µg/mL (≈ 0.47 µM)
MIC [2]: 0.1 µg/mL (≈ 0.235 µM)

COc1c(N2CC(C)C(C)(N)C2)c(F)cc2c(=O)c(C(=O)O)cn([C@@H]3C[C@@H]3F)c12 (relative stereo) [Example 1, 7-[(3R*,4S*)-3-Amino-3,4-dimethylpyrrolidin-1-yl]-6-fluoro-1-[(1R,2S)-2-fluorocyclopropyl]-8-methoxy-1,4-dihydro-4-oxoguinoline-3-carboxylic acid]
MIC (E. coli NIHJ): 0.025 µg/mL (≈ 0.0614 µM)
MIC (P. vulgaris, 08601): 0.05 µg/mL (≈ 0.123 µM)
MIC (S. marscecens, 10100): 0.2 µg/mL (≈ 0.491 µM)
MIC (P. aeruginosa, 32104): 0.39 µg/mL (≈ 0.957 µM)
MIC (P. aeruginosa, 32121): 0.2 µg/mL (≈ 0.491 µM)
MIC (S. aureus, 209P): 0.025 µg/mL (≈ 0.0614 µM)
MIC (S. epidermidis, 56500): 0.1 µg/mL (≈ 0.245 µM)
MIC (E. faecalis, ATCC 19433): 0.2 µg/mL (≈ 0.491 µM)
MIC [1]: 0.78 µg/mL (≈ 1.91 µM)
MIC [2]: 0.1 µg/mL (≈ 0.245 µM)

CO[C@H]1/C=C/O[C@@]2(C)Oc3c(C)c(O)c4c(O)c(c(/C=N/N5CCN(C)CC5)c(O)c4c3C2=O)NC(=O)/C(C)=C\C=C\[C@H](C)[C@H](O)[C@@H](C)[C@@H](O)[C@@H](C)[C@H](OC(C)=O)[C@@H]1C [RFP, Rifampicin]
MIC ([3]; H37RV, strain H37Rv): 0.125 µg/mL (≈ 0.152 µM)
MIC ([3]; strain Kurono): 0.06 µg/mL (≈ 0.0729 µM)
MIC ([3]; strain Ravenel): 0.125 µg/mL (≈ 0.152 µM)
MIC ([3]; strain TB-s 2): 0.03 µg/mL (≈ 0.0365 µM)
MIC ([3]; strain TB-s 3): 0.125 µg/mL (≈ 0.152 µM)
MIC ([3]; strain TB-s 4): 0.06 µg/mL (≈ 0.0729 µM)
MIC ([3]; strain TB-s 5): 0.06 µg/mL (≈ 0.0729 µM)
MIC ([3]; strain TB-s 6): 0.125 µg/mL (≈ 0.152 µM)
MIC ([3]; strain TB-s 7): 0.06 µg/mL (≈ 0.0729 µM)
MIC ([3]; strain TB-s 8): 0.015 µg/mL (≈ 0.0182 µM)
MIC ([3]; strain TB-s 9): 0.06 µg/mL (≈ 0.0729 µM)
MIC ([3]; strain TB-s 10): 0.06 µg/mL (≈ 0.0729 µM)
MIC ([3]; strain TB-s 11): 0.06 µg/mL (≈ 0.0729 µM)
MIC ([3]; strain TB-s 12): 0.125 µg/mL (≈ 0.152 µM)
MIC ([3]; strain TB-s 13): 0.06 µg/mL (≈ 0.0729 µM)
MIC ([3]; strain TB-s 14): 0.03 µg/mL (≈ 0.0365 µM)
MIC ([3]; strain TB-s 15): 0.06 µg/mL (≈ 0.0729 µM)
MIC ([3]; strain TB-s 16): 0.06 µg/mL (≈ 0.0729 µM)
MIC ([3]; strain TB-s 17): 0.06 µg/mL (≈ 0.0729 µM)
MIC ([3]; strain TB-s 18): 0.03 µg/mL (≈ 0.0365 µM)
MIC ([3]; strain TB-s 19): 0.125 µg/mL (≈ 0.152 µM)
MIC ([3]; strain TB-s 20): 0.25 µg/mL (≈ 0.304 µM)
MIC ([3]; strain TB-s 21): 0.03 µg/mL (≈ 0.0365 µM)
MIC ([3]; strain TB-s 22): 0.015 µg/mL (≈ 0.0182 µM)
MIC ([4]; strain 1 (QR-3)): > 128 µg/mL
MIC ([4]; strain 2 (QR-6)): > 128 µg/mL
MIC ([4]; strain 3 (QR-1)): 128 µg/mL (≈ 156 µM)
MIC ([4]; strain 4 (QR-9)): > 128 µg/mL
MIC ([4]; strain MDR 1): 16 µg/mL (≈ 19.4 µM)
MIC ([4]; strain MDR 3): 128 µg/mL (≈ 156 µM)
MIC ([4]; strain MDR 4): 64 µg/mL (≈ 77.8 µM)
MIC ([4]; strain MDR 5): 32 µg/mL (≈ 38.9 µM)
MIC ([4]; strain MDR 7): > 128 µg/mL
MIC ([4]; strain MDR 9): 128 µg/mL (≈ 156 µM)
MIC ([4]; strain MDR 12): 128 µg/mL (≈ 156 µM)
MIC ([4]; strain S 1): 16 µg/mL (≈ 19.4 µM)

CCC1CN(c2c(F)cc3c(=O)c(C(=O)O)cn([C@@H]4C[C@@H]4F)c3c2OC)CC1(C)N (relative stereo) [Example 14, 7-[(3R*,4R*)-3-Amino-4-ethyl-3-methylpyrrolidin-1-yl]-6-fluoro-1-[(1R,2S)-2-fluorocyclopropyl]-8-methoxy-1,4-dihydro-4-oxoquinoline-3-carboxylic acid]
melting point: 167 to 169 °C

COc1c(N2C[C@@H](CF)[C@@](C)(N)C2)c(F)cc2c(=O)c(C(=O)O)cn([C@@H]3C[C@@H]3F)c12 [Example 24, 7-[(3R,4R)-3-Amino-4-fluoromethyl-3-methylpyrrolidin-1-yl]-6-fluoro-1-[(1R,2S)-2-fluoro-1-cyclopropyl]-8-methoxy-1,4-dihydro-4-oxoquinoline-3-carboxylic acid]
melting point: 185 to 188 °C

C[C@H]1COc2c(N3CCN(C)CC3)c(F)cc3c(=O)c(C(=O)O)cn1c23 [LVFX, levofloxacin, reference compound]
MIC (E. coli NIHJ): 0.012 µg/mL (≈ 0.0332 µM)
MIC (P. vulgaris, 08601): 0.012 µg/mL (≈ 0.0332 µM)
MIC (S. marscecens, 10100): 0.1 µg/mL (≈ 0.277 µM)
MIC (P. aeruginosa, 32104): 0.2 µg/mL (≈ 0.553 µM)
MIC (P. aeruginosa, 32121): 0.1 µg/mL (≈ 0.277 µM)
MIC (S. aureus, 209P): 0.2 µg/mL (≈ 0.553 µM)
MIC (S. epidermidis, 56500): 0.39 µg/mL (≈ 1.08 µM)
MIC (E. faecalis, ATCC 19433): 0.78 µg/mL (≈ 2.16 µM)
MIC [1]: > 6.25 µg/mL
MIC [2]: 0.78 µg/mL (≈ 2.16 µM)

Cc1c(N2C[C@H](CF)[C@](C)(N)C2)c(F)cc2c(=O)c(C(=O)O)cn(C3CC3)c12 [Example 23, 7-[(3S,4S)-3-Amino-4-fluoromethyl-3-methylpyrrolidin-1-yl]-1-cyclopropyl-6-fluoro-8-methyl-1,4-dihydro-4-oxoquinoline-3-carboxylic acid]
melting point: 212 to 215 °C
inhibition at 30 µM (hERG K+ channel): 3 ± 4.1%
inhibition at 100 µM (hERG K+ channel): 4.6 ± 4.7%
inhibition at 300 µM (hERG K+ channel): 16.7 ± 8.4%
MIC (E. coli NIHJ): ≤ 0.003 µg/mL
MIC (P. vulgaris, 08601): 0.006 µg/mL (≈ 0.0153 µM)
MIC (S. marscecens, 10100): 0.05 µg/mL (≈ 0.128 µM)
MIC (P. aeruginosa, 32121): 0.05 µg/mL (≈ 0.128 µM)
MIC (S. aureus, 209P): 0.025 µg/mL (≈ 0.0639 µM)
MIC (S. epidermidis, 56500): 0.05 µg/mL (≈ 0.128 µM)
MIC (E. faecalis, ATCC 19433): 0.1 µg/mL (≈ 0.255 µM)
MIC [1]: 0.39 µg/mL (≈ 0.996 µM)
MIC [2]: 0.05 µg/mL (≈ 0.128 µM)

COc1c(N2CC(OC)C(C)(N)C2)c(F)cc2c(=O)c(C(=O)O)cn([C@@H]3C[C@@H]3F)c12 (stereo partly drawn) [Example 18, 7-(3-Amino-4-methoxy-3-methylpyrrolidine-1-yl)-6-fluoro-1-[(1R,2S)-2-fluorocyclopropyl]-8-methoxy-1,4-dihydro-4-oxoquinoline-3-carboxylic acid]
melting point: 150 to 151 °C
